This is an account of results in PubChem BioAssay (NCI).

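Protocol summary: plate cells (96-well), add compound at 5 concentrations, incubate 48 h, interpolate endpoints linearly. GI50: concentration for 50% inhibition of growth. TGI denotes the concentration required for complete inhibition of growth.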

Among the test systems are LXFL 529 NSCLC; NCI-H23 lung; SW-620 colon; HCT-116 colon; OVCAR-3 ovarian; ACHN renal; M19-MEL melanoma; UACC-257 melanoma; SF-268 CNS; NCI-H460 lung.
Assay in all cases: inhibition of tumour cell growth, NCI panel, 48 h

On to `CN(C)C(=O)Oc1c(-c2ccccc2)c(=O)n2c3ccccc3n3c(=O)n(C)c(=O)c1c23`, for which the TGI in the assay with LXFL 529 NSCLC, with NCI-H23 lung, in the assay on SW-620 colon, in the assay on HCT-116 colon, in the assay on OVCAR-3 ovarian and in the assay with ACHN renal was > 100 µM in each case. The TGI in the assay with M19-MEL melanoma, with UACC-257 melanoma, in the assay with SF-268 CNS and with NCI-H460 lung was > 100 µM each time.
With `Cc1ccc(C(=O)CC2=Nc3nnc(CCCCCCCc4nnc5n4C(=O)C(CC(=O)c4ccc(C)cc4)=N5)n3C2=O)cc1`, the TGI with LXFL 529 NSCLC, in the assay on NCI-H23 lung, in the assay with SW-620 colon, in the assay with HCT-116 colon, in the assay with OVCAR-3 ovarian and in the assay with ACHN renal was > 100 µM throughout. The TGI in the assay on M19-MEL melanoma, with UACC-257 melanoma, with SF-268 CNS and with NCI-H460 lung was > 100 µM throughout.
As to `O=C(CCC(=O)C1CCC/C1=N/O)Nc1ccc(Cl)cc1` (stereo not given), the TGI in the assay on LXFL 529 NSCLC, with NCI-H23 lung, in the assay on SW-620 colon, in the assay on HCT-116 colon, with OVCAR-3 ovarian and with ACHN renal was > 100 µM throughout. Further, the TGI in the assay with M19-MEL melanoma, in the assay with UACC-257 melanoma, with SF-268 CNS and in the assay on NCI-H460 lung was > 100 µM each time.
Regarding `Cc1cccc2c(O)cc(=O)oc12`, the TGI in the assay on LXFL 529 NSCLC, in the assay with NCI-H23 lung, in the assay on SW-620 colon, in the assay with HCT-116 colon, in the assay on OVCAR-3 ovarian and in the assay with ACHN renal was > 100 µM in each case. Also, the TGI in the assay on M19-MEL melanoma, in the assay on UACC-257 melanoma, in the assay with SF-268 CNS and in the assay with NCI-H460 lung was > 100 µM each time.
With `O=NN(CCCl)C(=O)NC1CCC(CC2CCC(NC(=O)N(CCCl)N=O)CC2)CC1` (stereo not given), the TGI in the assay with LXFL 529 NSCLC is > 100 µM; in the assay on NCI-H23 lung, 99.6 µM; in the assay on SW-620 colon, > 51.3 µM; in the assay with HCT-116 colon, > 100 µM; with OVCAR-3 ovarian, > 67.4 µM; with ACHN renal it was > 100 µM. Further, the TGI in the assay on M19-MEL melanoma was > 100 µM; in the assay with UACC-257 melanoma, > 100 µM; with SF-268 CNS, > 52.4 µM; with NCI-H460 lung it was > 100 µM.
With `O=C1/C(=C/c2ccc(Br)cc2)CCC/C1=C\c1ccc(Br)cc1`, the TGI in the assay with LXFL 529 NSCLC was 14.7 µM; with NCI-H23 lung, 21.2 µM; in the assay with SW-620 colon it was 89 µM; in the assay on HCT-116 colon, 3.1 µM; in the assay with OVCAR-3 ovarian, 15.9 µM; with ACHN renal, 29.8 µM. Moreover, the TGI with M19-MEL melanoma is 32.9 µM; with UACC-257 melanoma, 16.2 µM; in the assay with SF-268 CNS it was > 100 µM; with NCI-H460 lung, 28.8 µM.
For the compound `NNC(=O)C(=O)N/N=C(\CCC(=O)Nc1ccc(Cl)cc1)Cc1nc2ccccc2s1`, the TGI with LXFL 529 NSCLC, in the assay on NCI-H23 lung, in the assay on SW-620 colon, with HCT-116 colon, in the assay with OVCAR-3 ovarian and in the assay with ACHN renal was > 100 µM in each case. In addition, the TGI in the assay on M19-MEL melanoma was 36.9 µM; with UACC-257 melanoma it was > 100 µM; in the assay on SF-268 CNS, > 100 µM; with NCI-H460 lung, > 100 µM.
Take `O=C(NC(=O)c1ccccc1[N+](=O)[O-])Nc1ccc(Oc2ncc(Cl)cn2)c(C(F)(F)F)c1`: the TGI with LXFL 529 NSCLC is > 43.9 µM; with NCI-H23 lung it was > 100 µM; with SW-620 colon, > 11.9 µM; in the assay on HCT-116 colon, 27.3 µM; in the assay on OVCAR-3 ovarian, 0.838 µM; in the assay on ACHN renal it was 32.1 µM. Moreover, the TGI in the assay on M19-MEL melanoma is > 100 µM; with UACC-257 melanoma it was 41.8 µM; with SF-268 CNS, 38.4 µM; in the assay with NCI-H460 lung, > 20.7 µM.
`Cn1c(=O)c2/c(n(C)c1=O)=N\C=c1\c(=O)n(C)c(=O)n(C)\c1=N\C=2`: the TGI in the assay on LXFL 529 NSCLC, in the assay on NCI-H23 lung, in the assay with SW-620 colon, with HCT-116 colon, with OVCAR-3 ovarian and in the assay with ACHN renal was > 100 µM throughout. For the same compound, the TGI in the assay on M19-MEL melanoma, in the assay on UACC-257 melanoma, in the assay on SF-268 CNS and in the assay with NCI-H460 lung was > 100 µM throughout.
For `OCCN1CCN(CC/C=C2/c3ccccc3Sc3ccc(Cl)cc32)CC1`, the TGI with LXFL 529 NSCLC was found to be 17.9 µM; with NCI-H23 lung, 29.2 µM; in the assay with SW-620 colon, 24.6 µM; with HCT-116 colon, 21.7 µM; in the assay with OVCAR-3 ovarian it was 27.9 µM; in the assay on ACHN renal, 29.7 µM. The TGI with M19-MEL melanoma came to 4.09 µM; in the assay with UACC-257 melanoma it was 7.16 µM; in the assay on SF-268 CNS it was 28.3 µM; in the assay on NCI-H460 lung it was 16.3 µM.
For the compound `CCN(CC)C(=S)[S][Bi]([S]C(=S)N(CC)CC)[S]C(=S)N(CC)CC`, the GI50 in the assay with LXFL 529 NSCLC was 0.142 µM; in the assay on NCI-H23 lung it was 0.211 µM; with SW-620 colon, 0.0916 µM; in the assay on HCT-116 colon, 0.0858 µM; with OVCAR-3 ovarian, 0.0525 µM; in the assay on ACHN renal, 0.226 µM. Besides, the GI50 with M19-MEL melanoma was 0.162 µM; with UACC-257 melanoma, 0.178 µM; in the assay with SF-268 CNS, 0.455 µM; with NCI-H460 lung, 1.44 µM. The TGI with LXFL 529 NSCLC stood at 0.275 µM; with NCI-H23 lung, 0.582 µM; with SW-620 colon it was 0.229 µM; in the assay with HCT-116 colon, 0.247 µM; in the assay with OVCAR-3 ovarian, 0.174 µM; with ACHN renal it was 0.488 µM. Also, the TGI came to 0.314 µM in the assay with M19-MEL melanoma, 0.384 µM in the assay on UACC-257 melanoma, 1.77 µM with SF-268 CNS and 3.07 µM in the assay on NCI-H460 lung.
Take `CCCCCCCCCCCCCCCCCC(=O)Nc1ccn(C2OC(CO)C(O)C2O)c(=O)n1` (stereo not given): the TGI is > 100 µM in the assay on LXFL 529 NSCLC; 98.7 µM in the assay on NCI-H23 lung; > 100 µM in the assay with SW-620 colon; > 100 µM in the assay on HCT-116 colon; 69.6 µM in the assay on OVCAR-3 ovarian; > 100 µM in the assay with ACHN renal. For the same compound, the TGI in the assay with M19-MEL melanoma, in the assay with UACC-257 melanoma, in the assay on SF-268 CNS and with NCI-H460 lung was > 100 µM in each case.
Regarding `C[C@]12CCC(=O)C=C1CC[C@@H]1C2CC[C@]2(C)c3nn(-c4ccccc4)nc3CC12` (stereo not given in full), the TGI with LXFL 529 NSCLC, in the assay with NCI-H23 lung, with SW-620 colon, with HCT-116 colon, in the assay on OVCAR-3 ovarian and in the assay with ACHN renal was > 100 µM each time. The TGI with M19-MEL melanoma, in the assay with UACC-257 melanoma, in the assay with SF-268 CNS and in the assay with NCI-H460 lung was > 100 µM throughout.
As to `CCc1cccc(C)c1NC(=O)CC1C(=O)Nc2ccccc2S1(=O)=O` (stereo not given), the TGI worked out at 37 µM in the assay on LXFL 529 NSCLC; 41.1 µM in the assay on NCI-H23 lung; 29.3 µM in the assay on SW-620 colon; 35.4 µM in the assay with HCT-116 colon; 33.5 µM in the assay on OVCAR-3 ovarian; 47.4 µM in the assay with ACHN renal. Further, the TGI in the assay with M19-MEL melanoma came out at 38.9 µM; in the assay with UACC-257 melanoma, 82.7 µM; in the assay on SF-268 CNS it was 39.4 µM; in the assay on NCI-H460 lung, 27.9 µM.
On to `CC(=O)N/C(=C\c1ccc(Cc2nc3c([nH]2)C(=O)c2ccccc2C3=O)cc1)c1nc2c([nH]1)C(=O)c1ccccc1C2=O`, for which the TGI with LXFL 529 NSCLC, in the assay on NCI-H23 lung, in the assay with SW-620 colon, in the assay with HCT-116 colon, in the assay with OVCAR-3 ovarian and with ACHN renal was > 100 µM in each case. For the same compound, the TGI in the assay on M19-MEL melanoma, in the assay with UACC-257 melanoma, in the assay with SF-268 CNS and in the assay on NCI-H460 lung was > 100 µM in each case.
As for `CCN(CC)CC(=N)N(CC)c1ccccc1`, the TGI with LXFL 529 NSCLC, in the assay on NCI-H23 lung, in the assay with SW-620 colon, in the assay with HCT-116 colon, in the assay on OVCAR-3 ovarian and in the assay with ACHN renal was > 100 µM in each case. The TGI in the assay with M19-MEL melanoma, in the assay on UACC-257 melanoma, in the assay with SF-268 CNS and in the assay on NCI-H460 lung was > 100 µM each time.
Consider `O=C(CC/C(CC(=O)c1ccc(Br)cc1)=N\O)Nc1ccc(Cl)c(Cl)c1`, for which the TGI in the assay on LXFL 529 NSCLC, in the assay on NCI-H23 lung, in the assay with SW-620 colon, with HCT-116 colon, in the assay with OVCAR-3 ovarian and with ACHN renal was > 100 µM in each case. For the same compound, the TGI with M19-MEL melanoma, in the assay on UACC-257 melanoma, with SF-268 CNS and in the assay with NCI-H460 lung was > 100 µM throughout.
Consider `CC(=O)[CH-]C(=O)c1ccccc1.CC(=O)[CH-]C(=O)c1ccccc1.CC[O-].O=C1c2ccccc2C(=O)c2c1ccc(O)c2[O-].[Ti+4]`, for which the TGI with LXFL 529 NSCLC, in the assay with NCI-H23 lung, in the assay on SW-620 colon, in the assay with HCT-116 colon, in the assay with OVCAR-3 ovarian and in the assay with ACHN renal was > 100 µM each time. Moreover, the TGI is 80.2 µM in the assay on M19-MEL melanoma, > 100 µM in the assay on UACC-257 melanoma, > 100 µM with SF-268 CNS and > 100 µM in the assay with NCI-H460 lung.
